# Measurements published in PubChem BioAssay AID270 (DTP/NCI, 2004).
# Several values for one entry are separate records, joined by “and”; a condition that tells them apart may be missing. Equal entries are not always repeated. Inconclusive results are not listed.
# Test system: BDF1 mice, s.c. Lewis lung carcinoma, T/C %
# Assay: NCI In Vivo Anticancer Drug Screen. Data for tumor model Lewis Lung Carcinoma (subcutaneous) in B6D2F1 (BDF1) mice
# Summary of the method: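 Antitumor effect in vivo is scored from survival or tumor burden, reported as treated relative to vehicle controls.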
# [1] = endpoint: median survival time, dose: 0.5 mg/kg/injection, schedule: Q01DX009 (ip), vehicle: saline, higher = longer survival
# [2] = endpoint: median survival time, dose: 2.0 mg/kg/injection, schedule: Q01DX009 (ip), vehicle: saline, higher = longer survival
# [3] = endpoint: median survival time, dose: 4.0 mg/kg/injection, schedule: Q01DX009 (ip), vehicle: saline, higher = longer survival
compound,measurement,setting,value
COC1C(O)=C2C(=O)OC(C)(O)/C=C/C=C\C=C/C=C/C(c3ccccc3)NC(=O)/C=C/C=C/C=C/C=C/C2(C)C1O (centres undefined),T/C,"endpoint: median survival time, dose: 0.12 mg/kg/injection, schedule: Q01DX009 (ip), vehicle: saline, higher = longer survival",92 % of control
same,T/C,"endpoint: median survival time, dose: 0.25 mg/kg/injection, schedule: Q01DX009 (ip), vehicle: saline, higher = longer survival",95 % of control
same,T/C,[1],100 % of control
same,T/C,"endpoint: median survival time, dose: 0.62 mg/kg/injection, schedule: Q01DX009 (ip), vehicle: saline, higher = longer survival",113 % of control
same,T/C,"endpoint: median survival time, dose: 2.5 mg/kg/injection, schedule: Q01DX009 (ip), vehicle: saline, higher = longer survival",91 % of control
COc1ccc(C[C@H](N)C(=O)NC2C(CO)OC(n3cnc4c(N(C)C)ncnc43)C2O)cc1 (some centres undefined),T/C,[2],97 % of control
same,T/C,[3],96 % of control and 101 % of control
same,T/C,"endpoint: median survival time, dose: 8.0 mg/kg/injection, schedule: Q01DX009 (ip), vehicle: saline, higher = longer survival",102 % of control
same,T/C,"endpoint: median survival time, dose: 16.0 mg/kg/injection, schedule: Q01DX009 (ip), vehicle: saline, higher = longer survival",99 % of control
same,T/C,"endpoint: median survival time, dose: 32.0 mg/kg/injection, schedule: Q01DX009 (ip), vehicle: saline, higher = longer survival",90 % of control and 110 % of control
same,T/C,"endpoint: median survival time, dose: 64.0 mg/kg/injection, schedule: Q01DX009 (ip), vehicle: saline, higher = longer survival",97 % of control and 102 % of control
same,T/C,"endpoint: median survival time, dose: 128.0 mg/kg/injection, schedule: Q01DX009 (ip), vehicle: saline, higher = longer survival",102 % of control
O=C1CC(c2ccc(OCN(CCCl)CCCl)cc2)CC(=O)C1CN(CCCl)CCCl (centres undefined),T/C,"endpoint: median survival time, dose: 0.5 mg/kg/injection, schedule: Q01DX009 (ip), vehicle: Klucel (hydroxypropylcellulose) (HPC), higher = longer survival",101 % of control
same,T/C,"endpoint: median survival time, dose: 1.0 mg/kg/injection, schedule: Q01DX009 (ip), vehicle: Klucel (hydroxypropylcellulose) (HPC), higher = longer survival",123 % of control
same,T/C,"endpoint: median survival time, dose: 2.0 mg/kg/injection, schedule: Q01DX009 (ip), vehicle: Klucel (hydroxypropylcellulose) (HPC), higher = longer survival",116 % of control
same,T/C,"endpoint: median survival time, dose: 4.0 mg/kg/injection, schedule: Q01DX009 (ip), vehicle: Klucel (hydroxypropylcellulose) (HPC), higher = longer survival",123 % of control
same,T/C,"endpoint: median survival time, dose: 8.0 mg/kg/injection, schedule: Q01DX009 (ip), vehicle: Klucel (hydroxypropylcellulose) (HPC), higher = longer survival",115 % of control
C[C@H]1C[C@H]2[C@@H]3CC[C@](O)(C(=O)CO)[C@@]3(C)C[C@H](O)[C@]2(F)[C@@]2(C)C=CC(=O)C=C12,T/C,"endpoint: mean tumor weight, dose: 15.0 mg/kg/injection, schedule: Q01DX011 (sc), vehicle: steriod suspending solution, higher = larger tumour",44 % of control
same,T/C,"endpoint: mean tumor weight, dose: 30.0 mg/kg/injection, schedule: Q01DX011 (sc), vehicle: steriod suspending solution, higher = larger tumour",43 % of control
same,T/C,"endpoint: mean tumor weight, dose: 90.0 mg/kg/injection, schedule: Q01DX011 (sc), vehicle: steriod suspending solution, higher = larger tumour",12 % of control
COc1ccc(-c2cc(=O)c3c(OC)c(OC)c(OC)c(OC)c3o2)cc1OC,T/C,"endpoint: mean tumor weight, dose: 50.0 mg/kg/injection, schedule: Q01DX011 (ip), vehicle: saline, higher = larger tumour",55 % of control and 77 % of control
same,T/C,"endpoint: mean tumor weight, dose: 200.0 mg/kg/injection, schedule: Q01DX011 (ip), vehicle: saline, higher = larger tumour",62 % of control and 78 % of control
O=CC1CO1 (centres undefined),T/C,"endpoint: mean tumor weight, dose: 29.0 mg/kg/injection, schedule: Q01DX011 (ip), vehicle: saline, higher = larger tumour",89 % of control
same,T/C,"endpoint: mean tumor weight, dose: 44.0 mg/kg/injection, schedule: Q01DX011 (ip), vehicle: saline, higher = larger tumour",44 % of control
same,T/C,"endpoint: mean tumor weight, dose: 66.0 mg/kg/injection, schedule: Q01DX011 (ip), vehicle: saline, higher = larger tumour",75 % of control
S=P(N1CC1)(N1CC1)N1CC1,T/C,"endpoint: mean tumor weight, dose: 0.75 mg/kg/injection, schedule: Q01DX011 (ip), vehicle: water, higher = larger tumour",79 % of control
same,T/C,"endpoint: mean tumor weight, dose: 1.5 mg/kg/injection, schedule: Q01DX011 (ip), vehicle: water, higher = larger tumour",81 % of control
same,T/C,"endpoint: mean tumor weight, dose: 3.0 mg/kg/injection, schedule: Q01DX011 (ip), vehicle: water, higher = larger tumour",44 % of control
same,T/C,"endpoint: mean tumor weight, dose: 6.0 mg/kg/injection, schedule: Q01DX011 (ip), vehicle: water, higher = larger tumour",21 % of control
same,T/C,[1],103 % of control
same,T/C,"endpoint: median survival time, dose: 1.0 mg/kg/injection, schedule: Q01DX009 (ip), vehicle: saline, higher = longer survival",100 % of control
same,T/C,"endpoint: median survival time, dose: 1.0 mg/kg/injection, schedule: Q02DX009 (ip), vehicle: saline, higher = longer survival",110 % of control
same,T/C,"endpoint: median survival time, dose: 1.5 mg/kg/injection, schedule: Q01DX009 (ip), vehicle: Klucel (hydroxypropylcellulose) (HPC), higher = longer survival",103 % of control
same,T/C,[2],100 % of control
same,T/C,"endpoint: median survival time, dose: 2.0 mg/kg/injection, schedule: Q02DX009 (ip), vehicle: saline, higher = longer survival",98 % of control
same,T/C,"endpoint: median survival time, dose: 3.0 mg/kg/injection, schedule: Q01DX009 (ip), vehicle: Klucel (hydroxypropylcellulose) (HPC), higher = longer survival",113 % of control
same,T/C,[3],86 % of control
same,T/C,"endpoint: median survival time, dose: 4.0 mg/kg/injection, schedule: Q02DX009 (ip), vehicle: saline, higher = longer survival",102 % of control
same,T/C,"endpoint: median survival time, dose: 8.0 mg/kg/injection, schedule: Q02DX009 (ip), vehicle: saline, higher = longer survival",94 % of control
ClCC[N+]12CC[N+](CCCl)(CC1)C2,T/C,"endpoint: median survival time, dose: 25.0 mg/kg/injection, schedule: Q01DX009 (ip), vehicle: saline, higher = longer survival",105 % of control
same,T/C,"endpoint: median survival time, dose: 50.0 mg/kg/injection, schedule: Q01DX009 (ip), vehicle: saline, higher = longer survival",106 % of control
C[N+](C)(C)CCOC(=O)/C=C/c1cnc[nH]1,T/C,"endpoint: median survival time, dose: 5.0 mg/kg/injection, schedule: Q01DX009 (ip), vehicle: saline, higher = longer survival",102 % of control
same,T/C,"endpoint: median survival time, dose: 10.0 mg/kg/injection, schedule: Q01DX009 (ip), vehicle: saline, higher = longer survival",94 % of control
same,T/C,"endpoint: median survival time, dose: 20.0 mg/kg/injection, schedule: Q01DX009 (ip), vehicle: saline, higher = longer survival",95 % of control
O=NN(CCF)C(=O)NC1CCSc2ccccc21 (centres undefined),T/C,"endpoint: median survival time, dose: 24.0 mg/kg/injection, schedule: Q01DX001 (ip), vehicle: saline with Tween-80, higher = longer survival",88 % of control
O=C(O)C1(NO)CCCC1,T/C,"endpoint: mean tumor weight, dose: 55.0 mg/kg/injection, schedule: Q01DX011 (ip), vehicle: saline, higher = larger tumour",73 % of control
same,T/C,"endpoint: mean tumor weight, dose: 83.0 mg/kg/injection, schedule: Q01DX011 (ip), vehicle: saline, higher = larger tumour",29 % of control
same,T/C,"endpoint: mean tumor weight, dose: 125.0 mg/kg/injection, schedule: Q01DX011 (ip), vehicle: saline, higher = larger tumour",27 % of control
CCn1cnc2c(SC)nc(N)nc21,T/C,"endpoint: mean tumor weight, dose: 100.0 mg/kg/injection, schedule: Q01DX011 (ip), vehicle: other, higher = larger tumour",50 % of control
same,T/C,"endpoint: mean tumor weight, dose: 250.0 mg/kg/injection, schedule: Q01DX011 (ip), vehicle: other, higher = larger tumour",60 % of control
same,T/C,"endpoint: mean tumor weight, dose: 500.0 mg/kg/injection, schedule: Q01DX011 (ip), vehicle: other, higher = larger tumour",67 % of control
same,T/C,"endpoint: mean tumor weight, dose: 1000.0 mg/kg/injection, schedule: Q01DX011 (ip), vehicle: other, higher = larger tumour",42 % of control
CC(=O)OC(C)(C)/C=C/C(=O)[C@](C)(O)[C@H]1[C@H](O)C[C@@]2(C)[C@@H]3CC=C4[C@@H](CC[C@H](O)C4(C)C)[C@]3(CO)C(=O)C[C@]12C,T/C,"endpoint: mean tumor weight, dose: 0.57 mg/kg/injection, schedule: Q01DX011 (ip), vehicle: saline, higher = larger tumour",67 % of control
NC(Cc1cc(I)c(Oc2ccc(O)c(I)c2)c(I)c1)C(=O)O (centres undefined),T/C,"endpoint: mean tumor weight, dose: 25.0 micrograms/kg/injection, schedule: Q01DX011 (ip), vehicle: saline, higher = larger tumour",93 % of control
same,T/C,"endpoint: mean tumor weight, dose: 100.0 micrograms/kg/injection, schedule: Q01DX011 (ip), vehicle: saline, higher = larger tumour",115 % of control
same,T/C,"endpoint: mean tumor weight, dose: 200.0 micrograms/kg/injection, schedule: Q01DX011 (ip), vehicle: saline, higher = larger tumour",118 % of control
Nc1ncn(C2OC(CO)C(O)C2O)c(=O)n1 (centres undefined),T/C,"endpoint: median survival time, dose: 0.75 mg/kg/injection, schedule: Q01DX009 (ip), vehicle: saline, higher = longer survival",105 % of control and 112 % of control and 121 % of control
same,T/C,"endpoint: median survival time, dose: 1.5 mg/kg/injection, schedule: Q01DX009 (ip), vehicle: saline, higher = longer survival",121 % of control and 124 % of control
same,T/C,"endpoint: median survival time, dose: 3.0 mg/kg/injection, schedule: Q01DX009 (ip), vehicle: saline, higher = longer survival",105 % of control and 110 % of control
same,T/C,"endpoint: median tumor weight (est.), dose: 0.75 mg/kg/injection, schedule: Q01DX009 (ip), vehicle: saline, higher = larger tumour",75 % of control
same,T/C,"endpoint: median tumor weight (est.), dose: 1.5 mg/kg/injection, schedule: Q01DX009 (ip), vehicle: saline, higher = larger tumour",73 % of control
same,T/C,"endpoint: median tumor weight (est.), dose: 3.0 mg/kg/injection, schedule: Q01DX009 (ip), vehicle: saline, higher = larger tumour",59 % of control
CC(C)c1ccc(O)c(=O)cc1,T/C,"endpoint: mean tumor weight, dose: 37.5 mg/kg/injection, schedule: Q01DX011 (ip), vehicle: carboxymethylcellulose (CMC), higher = larger tumour",52 % of control
same,T/C,"endpoint: mean tumor weight, dose: 75.0 mg/kg/injection, schedule: Q01DX011 (ip), vehicle: carboxymethylcellulose (CMC), higher = larger tumour",62 % of control
O=C(O)Cc1ccc(C2CCCCC2)cc1,T/C,"endpoint: mean tumor weight, dose: 150.0 mg/kg/injection, schedule: Q01DX011 (ip), vehicle: carboxymethylcellulose (CMC), higher = larger tumour",67 % of control
same,T/C,"endpoint: mean tumor weight, dose: 225.0 mg/kg/injection, schedule: Q01DX011 (ip), vehicle: carboxymethylcellulose (CMC), higher = larger tumour",88 % of control
same,T/C,"endpoint: mean tumor weight, dose: 335.0 mg/kg/injection, schedule: Q01DX011 (ip), vehicle: carboxymethylcellulose (CMC), higher = larger tumour",100 % of control
CCC(=O)NC1=C(N2CC2)C(=O)C(NC(=O)CC)=C(N2CC2)C1=O,T/C,"endpoint: mean tumor weight, dose: 1.8 mg/kg/injection, schedule: Q01DX011 (ip), vehicle: other, higher = larger tumour",72 % of control
same,T/C,"endpoint: mean tumor weight, dose: 2.7 mg/kg/injection, schedule: Q01DX011 (ip), vehicle: other, higher = larger tumour",54 % of control
same,T/C,"endpoint: mean tumor weight, dose: 4.0 mg/kg/injection, schedule: Q01DX011 (ip), vehicle: other, higher = larger tumour",27 % of control
same,T/C,"endpoint: mean tumor weight, dose: 6.0 mg/kg/injection, schedule: Q01DX011 (ip), vehicle: other, higher = larger tumour",28 % of control
CC1CCCCN1CCNc1ccc(CO)c2sc3ccccc3c(=O)c12 (centres undefined),T/C,"endpoint: median survival time, dose: 25.0 mg/kg/injection, schedule: Q01DX009 (ip), vehicle: saline with Tween-80, higher = longer survival",108 % of control
same,T/C,"endpoint: median survival time, dose: 50.0 mg/kg/injection, schedule: Q01DX009 (ip), vehicle: saline with Tween-80, higher = longer survival",100 % of control
same,T/C,"endpoint: median survival time, dose: 100.0 mg/kg/injection, schedule: Q01DX009 (ip), vehicle: saline with Tween-80, higher = longer survival",122 % of control
